Results: article PMC12136037, “Type II kinase inhibitors that target Parkinson’s disease–associated LRRK2” (Science Advances, 2025)
Where two headings read alike, the source gives them in different places.

Tests used:
Assay in all cases: DSF 100 kinase selectivity screen;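 note: compound tested at 20 µM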
Type in all cases: binding
[1] = biological target: T1, ~100 representative kinases (Homo sapiens, UniProt P19784); conditions: Protein CK2A2; average of three replicates
T1 construct: Recombinant protein kinase domains with a concentration of 2 μM
T1 sequence (P19784 whole entry, the tested form may be a part): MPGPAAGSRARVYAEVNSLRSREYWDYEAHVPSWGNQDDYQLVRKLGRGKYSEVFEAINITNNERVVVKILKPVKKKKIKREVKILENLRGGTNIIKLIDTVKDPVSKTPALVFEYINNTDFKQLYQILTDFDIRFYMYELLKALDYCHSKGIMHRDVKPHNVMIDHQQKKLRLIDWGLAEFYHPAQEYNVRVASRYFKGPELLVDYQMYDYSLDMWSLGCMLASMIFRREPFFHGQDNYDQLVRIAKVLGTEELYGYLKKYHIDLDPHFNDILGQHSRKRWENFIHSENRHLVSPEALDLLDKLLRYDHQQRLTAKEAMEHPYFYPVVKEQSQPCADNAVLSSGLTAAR
Method in brief: (§1)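 Each kinase domain, at 2 μM, is mixed with 20 μM test compound and SYPRO Orange in Hepes (20 mM, pH 7.5) with 500 mM NaCl. Temperature is then raised at 3°C/min and fluorescence-monitored unfolding yields the melting temperature change, ΔTm in degrees Celsius.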

[2] = biological target: T2, ~100 representative kinases (Homo sapiens, UniProt O95747); conditions: protein OSR1; average of three replicates
T2 construct: Recombinant protein kinase domains with a concentration of 2 μM
Method in brief: as §1

[3] = biological target: T3, ~100 representative kinases (Homo sapiens, UniProt P17948); conditions: protein FLT1; average of three replicates
T3 construct: Recombinant protein kinase domains with a concentration of 2 μM
T3 sequence (P17948 27-1338): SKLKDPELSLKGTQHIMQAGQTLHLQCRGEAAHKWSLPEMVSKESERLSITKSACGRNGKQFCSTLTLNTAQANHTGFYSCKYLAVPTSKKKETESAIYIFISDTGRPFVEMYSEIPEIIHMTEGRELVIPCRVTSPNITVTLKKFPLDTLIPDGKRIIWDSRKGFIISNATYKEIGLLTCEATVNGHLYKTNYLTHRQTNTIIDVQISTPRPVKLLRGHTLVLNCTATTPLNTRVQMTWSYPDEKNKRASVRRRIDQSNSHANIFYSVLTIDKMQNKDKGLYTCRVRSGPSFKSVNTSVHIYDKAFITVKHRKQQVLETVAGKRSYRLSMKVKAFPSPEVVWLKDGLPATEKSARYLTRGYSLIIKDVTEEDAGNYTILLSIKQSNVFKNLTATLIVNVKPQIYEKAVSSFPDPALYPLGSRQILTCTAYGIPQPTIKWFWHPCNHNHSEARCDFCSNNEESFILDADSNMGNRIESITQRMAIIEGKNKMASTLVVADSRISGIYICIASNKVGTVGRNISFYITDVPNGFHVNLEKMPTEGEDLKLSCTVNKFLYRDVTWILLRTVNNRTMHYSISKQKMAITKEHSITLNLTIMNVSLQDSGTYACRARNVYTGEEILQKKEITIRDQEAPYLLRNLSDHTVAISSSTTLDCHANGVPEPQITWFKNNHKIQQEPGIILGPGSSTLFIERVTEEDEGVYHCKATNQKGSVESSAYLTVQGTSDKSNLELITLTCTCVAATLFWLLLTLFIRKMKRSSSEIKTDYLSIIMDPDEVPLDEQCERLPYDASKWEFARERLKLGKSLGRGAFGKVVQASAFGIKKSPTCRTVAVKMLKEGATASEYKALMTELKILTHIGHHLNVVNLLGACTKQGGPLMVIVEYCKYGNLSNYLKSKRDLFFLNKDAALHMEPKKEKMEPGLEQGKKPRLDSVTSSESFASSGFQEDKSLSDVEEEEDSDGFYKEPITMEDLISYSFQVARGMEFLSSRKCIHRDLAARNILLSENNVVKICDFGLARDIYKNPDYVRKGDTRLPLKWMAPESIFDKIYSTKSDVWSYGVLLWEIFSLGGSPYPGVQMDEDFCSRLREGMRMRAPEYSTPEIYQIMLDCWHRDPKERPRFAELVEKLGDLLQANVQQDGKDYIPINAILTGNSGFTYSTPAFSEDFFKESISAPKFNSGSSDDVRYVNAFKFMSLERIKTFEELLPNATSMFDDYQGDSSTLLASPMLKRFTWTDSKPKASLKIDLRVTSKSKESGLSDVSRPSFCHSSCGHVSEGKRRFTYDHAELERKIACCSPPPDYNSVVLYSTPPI
Method in brief: as §1

[4] = biological target: T4, ~100 representative kinases (Homo sapiens, UniProt P11309); conditions: protein PIM1; average of three replicates
T4 construct: Recombinant protein kinase domains with a concentration of 2 μM
T4 sequence (P11309 whole entry, the tested form may be a part): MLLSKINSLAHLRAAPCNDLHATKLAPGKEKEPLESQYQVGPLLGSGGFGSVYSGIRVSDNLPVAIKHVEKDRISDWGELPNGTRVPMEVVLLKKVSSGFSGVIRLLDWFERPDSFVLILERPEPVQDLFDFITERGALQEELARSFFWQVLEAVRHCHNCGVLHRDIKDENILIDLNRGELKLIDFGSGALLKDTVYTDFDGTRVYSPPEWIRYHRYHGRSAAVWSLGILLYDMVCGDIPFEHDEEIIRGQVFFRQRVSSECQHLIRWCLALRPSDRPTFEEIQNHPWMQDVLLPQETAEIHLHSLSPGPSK
Method in brief: as §1

[5] = biological target: T5, ~100 representative kinases (Homo sapiens, UniProt Q13627); conditions: Protein DYRK1A; average of three replicates
T5 construct: Recombinant protein kinase domains with a concentration of 2 μM
Method in brief: as §1

[6] = biological target: T6, ~100 representative kinases (Homo sapiens, UniProt P16083); conditions: protein NQO2; average of three replicates
T6 construct: Recombinant protein kinase domains with a concentration of 2 μM
T6 sequence (P16083 1-231): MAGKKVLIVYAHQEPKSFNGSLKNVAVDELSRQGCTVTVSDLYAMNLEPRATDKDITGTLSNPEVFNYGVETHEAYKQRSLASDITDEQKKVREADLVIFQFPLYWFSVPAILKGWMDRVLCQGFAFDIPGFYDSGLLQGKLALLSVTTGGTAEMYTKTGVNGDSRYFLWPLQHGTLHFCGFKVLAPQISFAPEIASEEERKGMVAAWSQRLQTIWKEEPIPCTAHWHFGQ
Method in brief: as §1

[7] = biological target: T7, ~100 representative kinases (Homo sapiens, UniProt O96017); conditions: Protein CHEK2; average of three replicates
T7 construct: Recombinant protein kinase domains with a concentration of 2 μM
Method in brief: as §1

[8] = biological target: T8, ~100 representative kinases (Homo sapiens, UniProt P54756); conditions: Protein EPHA5; average of three replicates
T8 construct: Recombinant protein kinase domains with a concentration of 2 μM
T8 sequence (P54756 25-1037): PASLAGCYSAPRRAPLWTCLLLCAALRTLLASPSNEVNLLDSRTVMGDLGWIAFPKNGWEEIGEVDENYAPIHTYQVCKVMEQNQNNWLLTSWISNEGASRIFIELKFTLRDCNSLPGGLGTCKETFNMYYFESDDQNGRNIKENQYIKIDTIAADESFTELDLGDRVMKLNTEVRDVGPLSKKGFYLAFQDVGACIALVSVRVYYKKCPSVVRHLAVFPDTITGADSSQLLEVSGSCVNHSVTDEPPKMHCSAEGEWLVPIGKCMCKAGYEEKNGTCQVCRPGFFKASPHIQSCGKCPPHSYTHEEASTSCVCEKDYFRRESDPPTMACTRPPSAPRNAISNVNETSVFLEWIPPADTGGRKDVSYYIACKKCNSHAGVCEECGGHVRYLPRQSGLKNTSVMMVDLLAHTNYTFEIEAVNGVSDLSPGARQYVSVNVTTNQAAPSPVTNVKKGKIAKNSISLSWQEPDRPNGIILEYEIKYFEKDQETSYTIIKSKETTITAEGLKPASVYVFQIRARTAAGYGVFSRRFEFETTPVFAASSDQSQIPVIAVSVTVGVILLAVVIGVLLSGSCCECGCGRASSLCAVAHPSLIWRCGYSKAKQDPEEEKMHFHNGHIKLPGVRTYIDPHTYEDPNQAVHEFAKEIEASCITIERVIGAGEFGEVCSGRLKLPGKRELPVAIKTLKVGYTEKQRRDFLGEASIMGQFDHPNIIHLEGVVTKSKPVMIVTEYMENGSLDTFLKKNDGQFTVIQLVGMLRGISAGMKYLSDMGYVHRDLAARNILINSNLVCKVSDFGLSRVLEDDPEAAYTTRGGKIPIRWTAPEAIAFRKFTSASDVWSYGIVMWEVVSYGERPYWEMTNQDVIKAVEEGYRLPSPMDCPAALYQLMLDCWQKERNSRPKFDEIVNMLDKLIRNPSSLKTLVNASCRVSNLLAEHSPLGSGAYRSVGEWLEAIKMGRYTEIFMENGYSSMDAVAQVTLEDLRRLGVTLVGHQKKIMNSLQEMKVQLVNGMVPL
Method in brief: as §1

[9] = biological target: T9, ~100 representative kinases (Homo sapiens, UniProt O43293); conditions: Protein DAPK3; average of three replicates
T9 construct: Recombinant protein kinase domains with a concentration of 2 μM
Method in brief: as §1

[10] = biological target: T10, ~100 representative kinases (Homo sapiens, UniProt Q09013); conditions: Protein DMPK1; average of three replicates
T10 construct: Recombinant protein kinase domains with a concentration of 2 μM
T10 sequence (Q09013 1-629): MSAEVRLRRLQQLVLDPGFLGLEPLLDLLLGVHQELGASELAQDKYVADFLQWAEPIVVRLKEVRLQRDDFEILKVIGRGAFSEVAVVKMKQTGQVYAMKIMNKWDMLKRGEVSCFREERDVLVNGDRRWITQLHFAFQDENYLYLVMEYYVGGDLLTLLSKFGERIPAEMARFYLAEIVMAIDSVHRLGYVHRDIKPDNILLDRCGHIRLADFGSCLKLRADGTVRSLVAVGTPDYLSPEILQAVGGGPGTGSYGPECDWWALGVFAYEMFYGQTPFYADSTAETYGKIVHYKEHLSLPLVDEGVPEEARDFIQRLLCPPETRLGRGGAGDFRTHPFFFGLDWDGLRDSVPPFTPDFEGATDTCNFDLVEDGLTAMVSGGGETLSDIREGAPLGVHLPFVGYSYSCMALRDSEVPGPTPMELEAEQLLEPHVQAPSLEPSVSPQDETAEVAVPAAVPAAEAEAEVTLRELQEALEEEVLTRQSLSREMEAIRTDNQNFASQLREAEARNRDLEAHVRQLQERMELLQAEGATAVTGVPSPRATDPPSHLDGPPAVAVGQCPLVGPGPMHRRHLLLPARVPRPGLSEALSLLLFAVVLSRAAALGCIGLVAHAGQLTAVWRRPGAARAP
Method in brief: as §1

[11] = biological target: T11, ~100 representative kinases (Homo sapiens, UniProt P49137); conditions: protein MAPKAPK2; average of three replicates
T11 construct: Recombinant protein kinase domains with a concentration of 2 μM
T11 sequence (P49137 whole entry, the tested form may be a part): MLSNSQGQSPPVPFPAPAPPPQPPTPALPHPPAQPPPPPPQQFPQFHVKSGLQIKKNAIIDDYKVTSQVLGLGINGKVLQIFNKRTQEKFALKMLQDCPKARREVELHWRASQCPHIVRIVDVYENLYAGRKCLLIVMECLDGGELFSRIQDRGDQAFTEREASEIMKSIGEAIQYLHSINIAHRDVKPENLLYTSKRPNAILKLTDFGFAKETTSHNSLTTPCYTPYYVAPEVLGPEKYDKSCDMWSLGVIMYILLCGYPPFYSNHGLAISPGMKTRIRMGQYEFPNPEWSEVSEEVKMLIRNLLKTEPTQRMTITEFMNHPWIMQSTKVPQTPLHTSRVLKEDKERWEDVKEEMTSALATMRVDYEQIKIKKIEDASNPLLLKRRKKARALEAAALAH
Method in brief: as §1

[12] = biological target: T12, ~100 representative kinases (Homo sapiens, UniProt P00519)
T12 construct: Recombinant protein kinase domains with a concentration of 2 μM
T12 sequence (P00519 whole entry, the tested form may be a part): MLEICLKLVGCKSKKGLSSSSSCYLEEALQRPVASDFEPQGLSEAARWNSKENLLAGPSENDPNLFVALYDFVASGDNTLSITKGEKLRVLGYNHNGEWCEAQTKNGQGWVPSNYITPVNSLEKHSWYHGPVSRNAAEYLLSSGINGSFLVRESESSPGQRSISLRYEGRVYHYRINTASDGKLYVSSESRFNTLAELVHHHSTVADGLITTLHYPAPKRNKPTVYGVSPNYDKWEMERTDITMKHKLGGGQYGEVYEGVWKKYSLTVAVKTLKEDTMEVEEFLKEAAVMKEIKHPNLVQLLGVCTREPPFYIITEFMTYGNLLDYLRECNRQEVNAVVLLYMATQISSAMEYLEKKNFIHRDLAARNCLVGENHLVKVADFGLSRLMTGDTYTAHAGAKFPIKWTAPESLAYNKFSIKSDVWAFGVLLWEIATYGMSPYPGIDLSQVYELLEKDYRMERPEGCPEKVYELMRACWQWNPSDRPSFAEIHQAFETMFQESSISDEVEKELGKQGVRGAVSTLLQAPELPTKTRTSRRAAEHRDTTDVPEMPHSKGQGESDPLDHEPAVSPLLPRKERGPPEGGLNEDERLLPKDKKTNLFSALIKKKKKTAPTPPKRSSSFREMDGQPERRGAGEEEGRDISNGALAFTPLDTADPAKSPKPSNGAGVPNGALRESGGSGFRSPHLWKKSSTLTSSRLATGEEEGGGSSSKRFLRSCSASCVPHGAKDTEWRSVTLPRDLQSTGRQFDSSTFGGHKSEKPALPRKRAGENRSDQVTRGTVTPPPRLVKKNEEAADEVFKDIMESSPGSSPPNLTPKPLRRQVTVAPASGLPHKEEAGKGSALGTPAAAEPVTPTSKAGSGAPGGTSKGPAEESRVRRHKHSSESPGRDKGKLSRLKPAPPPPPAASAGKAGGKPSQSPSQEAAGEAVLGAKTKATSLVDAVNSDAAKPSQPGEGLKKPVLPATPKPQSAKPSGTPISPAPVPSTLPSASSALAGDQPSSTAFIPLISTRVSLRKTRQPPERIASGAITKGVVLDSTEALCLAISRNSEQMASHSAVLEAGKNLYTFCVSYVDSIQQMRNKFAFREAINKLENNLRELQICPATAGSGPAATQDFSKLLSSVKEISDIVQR
Method in brief: as §1

[13] = biological target: T13, ~100 representative kinases (Homo sapiens, UniProt Q16566); conditions: Protein CAMK4; average of three replicates
T13 construct: Recombinant protein kinase domains with a concentration of 2 μM
T13 sequence (Q16566 1-473): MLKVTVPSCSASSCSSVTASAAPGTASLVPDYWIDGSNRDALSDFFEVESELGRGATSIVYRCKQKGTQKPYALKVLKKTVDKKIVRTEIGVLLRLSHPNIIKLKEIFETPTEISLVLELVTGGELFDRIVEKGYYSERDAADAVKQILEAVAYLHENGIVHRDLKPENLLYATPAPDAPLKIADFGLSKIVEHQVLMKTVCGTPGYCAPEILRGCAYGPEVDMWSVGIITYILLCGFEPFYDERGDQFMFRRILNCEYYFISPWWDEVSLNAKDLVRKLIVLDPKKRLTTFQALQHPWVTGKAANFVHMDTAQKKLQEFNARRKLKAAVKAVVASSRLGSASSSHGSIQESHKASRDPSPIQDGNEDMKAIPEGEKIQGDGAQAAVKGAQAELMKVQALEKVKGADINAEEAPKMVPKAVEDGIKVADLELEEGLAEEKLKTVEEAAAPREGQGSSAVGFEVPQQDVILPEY
Method in brief: as §1

[14] = biological target: T14, ~100 representative kinases (Homo sapiens, UniProt Q9Y2H1); conditions: Protein STK38L; DSF; average of three replicates
T14 construct: Recombinant protein kinase domains with a concentration of 2 μM
T14 sequence (Q9Y2H1 whole entry, the tested form may be a part): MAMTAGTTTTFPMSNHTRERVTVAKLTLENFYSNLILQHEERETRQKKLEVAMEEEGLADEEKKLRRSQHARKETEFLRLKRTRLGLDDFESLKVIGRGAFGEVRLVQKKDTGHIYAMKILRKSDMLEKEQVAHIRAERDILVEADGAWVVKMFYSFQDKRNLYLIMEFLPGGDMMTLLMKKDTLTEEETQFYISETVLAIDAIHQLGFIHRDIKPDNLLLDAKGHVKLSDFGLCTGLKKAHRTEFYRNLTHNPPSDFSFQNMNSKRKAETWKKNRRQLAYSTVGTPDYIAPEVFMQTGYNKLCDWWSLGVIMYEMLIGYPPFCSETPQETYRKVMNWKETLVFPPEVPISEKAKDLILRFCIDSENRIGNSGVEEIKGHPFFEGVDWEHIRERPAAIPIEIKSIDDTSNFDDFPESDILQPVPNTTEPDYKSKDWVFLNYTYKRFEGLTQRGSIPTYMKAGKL
Method in brief: as §1

[15] = biological target: T15, ~100 representative kinases (Homo sapiens, UniProt Q9H2G2)
T15 construct: Recombinant protein kinase domains with a concentration of 2 μM
Method in brief: as §1

[16] = Protein ABL1, average of three replicates
[17] = Protein SLK, DSF, average of three replicates

Row | SMILES | dTm [1] [K] | dTm [2] [K] | dTm [3] [K] | dTm [4] [K] | dTm [5] [K] | dTm [6] [K] | dTm [7] [K] | dTm [8] [K] | dTm [9] [K] | dTm [10] [K] | dTm [11] [K] | dTm [12, 16] [K] | dTm [13] [K] | dTm [14] [K] | dTm [15, 17] [K] | dTm [12] [K] | dTm [15] [K]
1 | Cc1cc(NC(=O)C2(C(=O)Nc3cccc(-c4c[nH]c5ncnc(N6CCOCC6)c45)c3)CC2)ccc1F [Compound 20] | 1.33 | 1.31 | -2.83 | 5.73 | 7.39 | -1.06 | 5.31 | 3.44 | 10.09 | -1.17 | -0.28 | 2.29 | 4.77 | 0.36 | 8.94 | – | –
2 | CCNc1nc(Nc2cc(F)c(C(=O)N3CCOCC3)cc2OC)ncc1C(F)(F)F [GNE-7915] | 2.65 | 0.21 | 1.69 | 0.44 | -0.0472 | – | 0.72 | -0.45 | 1.72 | 0.77 | -0.23 | 0.74 | 0.15 | 0.75 | 0.62 | – | –
3 | CC(C)(C)c1cccc(NC(=O)C2(C(=O)Nc3cccc(-c4c[nH]c5ncnc(N6CCOCC6)c45)c3)CC2)c1 [Compound 22] | 2.45 | 4.04 | 2.44 | 4.89 | 0.19 | -1.08 | 3.64 | 2.41 | 3.52 | -0.60 | -0.67 | 2.30 | 1.51 | -2.35 | 5.75 | – | –
4 | CN[C@@H]1C[C@H]2O[C@@](C)([C@@H]1OC)n1c3ccccc3c3c4c(c5c6ccccc6n2c5c31)C(=O)NC4 [Staurosporine] | – | 8.41 | 13.08 | – | – | – | – | – | – | – | – | – | 8.45 | – | – | – | –
5 | O=C(Nc1cccc(-c2c[nH]c3ncnc(N4CCOCC4)c23)c1)C1(C(=O)Nc2ccc(F)cc2F)CC1 [Compound 23] | 1.02 | 1.41 | 3.92 | 0.61 | 1.28 | -1.88 | 3.32 | 1.86 | 3.66 | -0.57 | -0.35 | 1.35 | 0.57 | 0.0847 | 4.42 | – | –
6 | CC(=O)N1CCN(c2nc(Cl)nc3[nH]cc(-c4cccc(NC(=O)Nc5cc(C(C)(C)C)nn5-c5ccc(C)cc5)c4)c23)CC1 [Compound 31] | -3.51 | -2.10 | 7.62 | 3.25 | -1.38 | -0.27 | 5.59 | 1.56 | 6.63 | -0.66 | -0.40 | 2.73 | -0.77 | -0.73 | 9.23 | – | –
7 | Cc1ccc(C(=O)Nc2ccc(CN3CCN(C)CC3)c(C(F)(F)F)c2)cc1C#Cc1cnc2[nH]ncc2c1 [GZD-824, reference compound] | 1.79 | 0.93 | 22.54 | -0.44 | -2.15 | – | 5.84 | 14.58 | 0.50 | 3.13 | -0.24 | – | 0.32 | 2.07 | – | 30.43 | 15.82
8 | CNC(=O)c1cc(Oc2ccc(NC(=O)Nc3cc(C(C)(C)C)nn3-c3ccc4ncccc4c3)c(F)c2)ccn1 [Rebastinib, reference compound] | 1.06 | 1.75 | – | 0.65 | 0.55 | -1.54 | 10.49 | 10.65 | 5.73 | -0.79 | 0.44 | – | 1.22 | – | 14.21 | – | –
9 | COc1cc2c(Oc3ccc(NC(=O)C4(C(=O)Nc5ccc(F)cc5)CC4)cc3F)ccnc2cc1OCCCN1CCOCC1 [Foretinib, reference compound] | 0.00 | -0.48 | – | 1.41 | 4.04 | 0.08 | 18.83 | 11.59 | 5.00 | -0.67 | 0.33 | 13.44 | – | 0.47 | 8.07 | – | –
10 | Cc1ccc(C(=O)Nc2ccc(CN3CCN(C)CC3)c(C(F)(F)F)c2)cc1C#Cc1cnc2cccnn12 [Ponatinib, reference compound] | – | – | 18.52 | – | – | – | – | – | – | – | – | – | 1.32 | – | – | – | –
11 | Cn1cc(-c2c[nH]c3ncnc(N4CCOCC4)c23)cc1C#N [PFE-360] | 0.26 | -0.14 | 2.46 | 1.04 | 3.25 | – | 3.22 | -0.69 | 1.10 | 1.66 | 0.0427 | 3.25 | 0.56 | 0.0435 | 3.08 | – | –
12 | Cc1ccc(C(=O)Nc2ccc(CN3CCN(C)CC3)c(C(F)(F)F)c2)cc1C#Cc1c[nH]c2ncnc(N3CCOCC3)c12 [Compound 1] | -0.08 | 1.78 | 4.48 | 1.54 | -1.40 | 0.13 | 15.46 | 5.80 | 0.53 | 0.98 | -0.41 | 7.59 | 1.39 | 2.95 | – | – | –
13 | C[C@@H]1CN(c2cc(-c3n[nH]c4ccc(OC5(C)CC5)cc34)ncn2)C[C@H](C)O1 [MLi2] | -0.31 | 0.07 | 0.51 | 0.81 | 0.53 | – | 3.06 | -0.96 | 1.94 | 0.14 | -0.23 | 0.50 | 1.22 | -0.08 | -1.23 | – | –
